Experiments:
Mouse DAGL = Mouse DAGL assay (brain); type: biochemical; conditions: RG7774 10 µM
Method: Mouse brain or human HaCaT cells (CLS Cell Lines Service, GmbH, Eppelheim, Germany) were homogenized in 50 mM Tris-HCl (pH 7.4) using a glass potter, and homogenates were centrifuged at 4°C sequentially at 800 g (10 min) and 10,000 g (30 min). The final pellet (80–200 µg) was resuspended in 50 mM Tris-HCl (pH 7.4) containing 10 mM CaCl2 and incubated at 37°C for 30 min with sn-1[^14C]-stearoyl-2-arachidonoyl-glycerol (100 µM) (ARC, MO, USA). Reactions were stopped by adding chloroform/methanol (2:1, v/v), and the organic phase was dried and fractionated by thin-layer chromatography on silica gel, as previously reported. Levels of 1[^14C]-stearoyl acid radioactivity were determined by cutting the appropriate band from the gel and analyzing using a β-scintillation counter. Mouse cells were preincubated for 15 min with RG7774 (10 µM) and added to the incubation medium. Human cells were preincubated for 15 min with 8 different concentrations of RG7774 (0.1-500 µM) and added to the incubation medium. Control experiments were carried out in the presence of the selective DAGL inhibitor, D053 (10 µM).

pKa = type: physicochemical; conditions: basic
Description: TABLE 2 Physicochemical and ADMET profile for RG7774.

[1] = Brain:plasma ratio after oral administration (GLP toxicology studies, data on file); type: in vivo; conditions: rat, rats, read-out: Mean brain:plasma ratios
AT2 (h) = AT2 (h) (Homo sapiens, UniProt P50052); assay: CEREP radioligand binding; conditions: radioligand [^125I]-CGP 42112A
Chain of AT2 (h) (P50052 whole entry): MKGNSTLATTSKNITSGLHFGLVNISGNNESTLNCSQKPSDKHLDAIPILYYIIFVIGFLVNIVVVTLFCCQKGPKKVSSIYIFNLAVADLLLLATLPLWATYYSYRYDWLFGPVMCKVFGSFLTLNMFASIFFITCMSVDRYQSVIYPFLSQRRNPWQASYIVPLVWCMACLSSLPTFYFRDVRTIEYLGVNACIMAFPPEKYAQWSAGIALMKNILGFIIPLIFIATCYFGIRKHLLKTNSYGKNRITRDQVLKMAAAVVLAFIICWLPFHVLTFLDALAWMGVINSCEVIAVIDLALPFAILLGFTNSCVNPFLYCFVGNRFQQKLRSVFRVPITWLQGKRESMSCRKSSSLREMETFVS
Description: (§1) Supplement Table1.docx, table 3: Supplementary Table S3. RG7774 binding to non-CB1R/CB2R receptors, ion channels, transporters, and enzymes (CEREP, Celle l’Evescault, France; http://www.cerep.fr). | column: % inhibition of control SB (n = 2)

Alpha 1 (non-selective) = assay: CEREP radioligand binding; conditions: radioligand [^3H]-prazosin
Description: as §1

Alpha 2 (non-selective) = assay: CEREP radioligand binding; conditions: radioligand [^3H]-RX 821002
Description: as §1

Beta 2 (h) = Beta 2 (h) (Homo sapiens, UniProt P07550); assay: CEREP radioligand binding; conditions: radioligand [^3H](-)CGP 12177
Description: as §1

CB1 (h) = CB1 (h) (Homo sapiens, UniProt P21554); assay: CEREP radioligand binding; conditions: radioligand [^3H]-CP 55940
Description: as §1

CCK1 (CCKA) (h) = CCK1 (CCKA) (h) (Homo sapiens, UniProt P32238); assay: CEREP radioligand binding; conditions: radioligand [^125I]-CCK-8s
Chain of CCK1 (CCKA) (h) (P32238 whole entry): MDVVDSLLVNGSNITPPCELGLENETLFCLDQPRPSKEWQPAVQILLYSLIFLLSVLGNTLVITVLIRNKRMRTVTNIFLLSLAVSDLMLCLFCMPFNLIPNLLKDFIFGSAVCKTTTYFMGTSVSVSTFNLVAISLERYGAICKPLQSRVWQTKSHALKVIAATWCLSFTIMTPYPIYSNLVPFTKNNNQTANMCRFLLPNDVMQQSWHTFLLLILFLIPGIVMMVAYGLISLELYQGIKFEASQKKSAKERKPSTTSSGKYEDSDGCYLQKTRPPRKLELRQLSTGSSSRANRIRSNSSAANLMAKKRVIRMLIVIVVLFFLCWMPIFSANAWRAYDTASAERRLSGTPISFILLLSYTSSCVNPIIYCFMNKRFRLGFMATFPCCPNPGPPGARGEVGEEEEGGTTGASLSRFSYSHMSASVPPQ
Description: as §1

CCR1 = CCR1 (Homo sapiens, UniProt P32246); assay: CEREP radioligand binding; conditions: radioligand [^125I]-MIP-1α
Chain of CCR1 (P32246 whole entry): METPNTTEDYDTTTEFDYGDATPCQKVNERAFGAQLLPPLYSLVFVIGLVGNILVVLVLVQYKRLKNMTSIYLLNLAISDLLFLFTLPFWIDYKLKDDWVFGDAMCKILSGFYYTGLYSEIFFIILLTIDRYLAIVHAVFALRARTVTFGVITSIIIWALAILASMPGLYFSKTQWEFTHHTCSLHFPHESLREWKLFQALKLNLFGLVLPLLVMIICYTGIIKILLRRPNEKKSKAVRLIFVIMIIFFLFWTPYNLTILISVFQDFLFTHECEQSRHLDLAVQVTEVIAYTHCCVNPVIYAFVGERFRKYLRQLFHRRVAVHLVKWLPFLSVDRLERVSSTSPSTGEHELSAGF
Description: as §1

CXCR2 = CXCR2 (Homo sapiens, UniProt P25025); assay: CEREP radioligand binding; conditions: radioligand [^125I]-IL-8
Chain of CXCR2 (P25025 whole entry): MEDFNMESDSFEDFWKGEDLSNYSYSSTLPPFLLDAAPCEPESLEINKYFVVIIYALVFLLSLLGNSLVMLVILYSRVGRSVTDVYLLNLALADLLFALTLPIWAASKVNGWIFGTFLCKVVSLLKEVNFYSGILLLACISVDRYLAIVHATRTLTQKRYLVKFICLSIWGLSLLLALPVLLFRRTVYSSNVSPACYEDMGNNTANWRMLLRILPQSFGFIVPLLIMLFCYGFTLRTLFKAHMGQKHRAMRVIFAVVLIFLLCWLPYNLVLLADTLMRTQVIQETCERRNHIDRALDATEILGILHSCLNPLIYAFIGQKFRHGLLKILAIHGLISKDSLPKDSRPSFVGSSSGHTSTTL
Description: as §1

Cl- channel (GABA-gated) = assay: CEREP radioligand binding; conditions: radioligand [^35S]-TBPS
Description: as §1

D2S (h) = D2S (h) (Homo sapiens, UniProt P14416); assay: CEREP radioligand binding; conditions: radioligand [^3H]-methyl-spiperone
Chain of D2S (h) (P14416 1-414 isoform P14416-2): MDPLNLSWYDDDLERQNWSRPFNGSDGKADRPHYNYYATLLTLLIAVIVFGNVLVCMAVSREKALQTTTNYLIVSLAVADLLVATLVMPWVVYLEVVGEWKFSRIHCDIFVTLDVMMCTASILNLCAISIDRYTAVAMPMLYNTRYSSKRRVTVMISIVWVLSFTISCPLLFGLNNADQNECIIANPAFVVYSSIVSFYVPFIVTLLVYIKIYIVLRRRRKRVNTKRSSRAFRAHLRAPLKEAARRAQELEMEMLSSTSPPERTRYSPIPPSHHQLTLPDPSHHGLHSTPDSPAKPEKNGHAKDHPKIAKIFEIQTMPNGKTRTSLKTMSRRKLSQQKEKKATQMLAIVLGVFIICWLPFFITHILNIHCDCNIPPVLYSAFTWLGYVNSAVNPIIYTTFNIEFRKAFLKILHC
Description: as §1

D3 (h) = D3 (h) (Homo sapiens, UniProt P35462); assay: CEREP radioligand binding; conditions: radioligand [^3H]-methyl-spiperone
Chain of D3 (h) (P35462 whole entry): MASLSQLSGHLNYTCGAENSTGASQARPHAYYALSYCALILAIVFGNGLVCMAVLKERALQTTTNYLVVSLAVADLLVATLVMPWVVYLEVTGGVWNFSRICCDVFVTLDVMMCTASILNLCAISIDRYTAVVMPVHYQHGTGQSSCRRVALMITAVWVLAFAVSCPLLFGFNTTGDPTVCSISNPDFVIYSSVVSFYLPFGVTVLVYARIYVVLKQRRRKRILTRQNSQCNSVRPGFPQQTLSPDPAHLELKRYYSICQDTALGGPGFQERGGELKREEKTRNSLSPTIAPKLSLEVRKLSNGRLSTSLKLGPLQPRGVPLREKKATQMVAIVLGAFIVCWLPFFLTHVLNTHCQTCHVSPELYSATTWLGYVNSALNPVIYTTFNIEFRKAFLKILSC
Description: as §1

ETB (h) = ETB (h) (Homo sapiens, UniProt P24530); assay: CEREP radioligand binding; conditions: radioligand [^125I]-endothelin-1
Description: as §1

GABA (non-selective) = assay: CEREP radioligand binding; conditions: radioligand [^3H]-GABA
Description: as §1

H1 (h) = H1 (h) (Homo sapiens, UniProt P35367); assay: CEREP radioligand binding; conditions: radioligand [^3H]-pyrilamine
Chain of H1 (h) (P35367 whole entry): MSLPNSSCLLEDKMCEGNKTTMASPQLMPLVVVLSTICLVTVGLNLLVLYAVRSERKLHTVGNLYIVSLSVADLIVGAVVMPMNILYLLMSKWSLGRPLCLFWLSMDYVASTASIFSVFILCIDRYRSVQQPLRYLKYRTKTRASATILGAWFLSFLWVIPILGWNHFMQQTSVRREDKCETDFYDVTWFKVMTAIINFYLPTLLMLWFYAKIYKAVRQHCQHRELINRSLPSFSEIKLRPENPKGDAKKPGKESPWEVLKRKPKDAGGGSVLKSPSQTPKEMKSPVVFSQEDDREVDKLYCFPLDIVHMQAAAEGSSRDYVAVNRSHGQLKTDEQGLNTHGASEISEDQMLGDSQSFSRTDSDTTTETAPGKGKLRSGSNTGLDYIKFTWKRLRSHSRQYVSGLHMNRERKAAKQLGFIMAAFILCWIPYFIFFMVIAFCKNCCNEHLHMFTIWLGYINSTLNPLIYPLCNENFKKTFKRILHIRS
Description: as §1

IP (PGI2) (h) = IP (PGI2) (h) (Homo sapiens, UniProt P43119); assay: CEREP radioligand binding; conditions: radioligand [^3H]-iloprost
Description: as §1

M3 (h) = M3 (h) (Homo sapiens, UniProt P20309); assay: CEREP radioligand binding; conditions: radioligand [^3H]-4-DAMP
Chain of M3 (h) (P20309 whole entry): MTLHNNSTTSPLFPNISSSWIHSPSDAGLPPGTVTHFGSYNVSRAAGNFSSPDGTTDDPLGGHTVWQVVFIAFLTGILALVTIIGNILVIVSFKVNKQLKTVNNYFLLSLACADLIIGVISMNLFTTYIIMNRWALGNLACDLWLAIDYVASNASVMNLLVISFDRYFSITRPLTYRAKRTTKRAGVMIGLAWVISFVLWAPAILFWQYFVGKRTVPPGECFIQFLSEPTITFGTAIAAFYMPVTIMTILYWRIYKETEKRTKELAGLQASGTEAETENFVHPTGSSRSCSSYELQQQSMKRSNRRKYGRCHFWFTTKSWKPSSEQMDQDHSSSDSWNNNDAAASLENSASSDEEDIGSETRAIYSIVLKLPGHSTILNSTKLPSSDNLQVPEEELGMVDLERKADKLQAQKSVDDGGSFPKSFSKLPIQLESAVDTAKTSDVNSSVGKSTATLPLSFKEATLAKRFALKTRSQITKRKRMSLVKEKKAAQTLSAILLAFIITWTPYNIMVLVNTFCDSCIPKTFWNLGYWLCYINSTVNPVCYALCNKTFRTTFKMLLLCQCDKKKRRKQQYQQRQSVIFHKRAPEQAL
Description: as §1

M4 (h) = M4 (h) (Homo sapiens, UniProt P08173); assay: CEREP radioligand binding; conditions: radioligand [^3H]-4-DAMP
Description: as §1

NK1 (h) = NK1 (h) (Homo sapiens, UniProt P25103); assay: CEREP radioligand binding; conditions: radioligand [^125I]-BH-SP
Description: as §1

NK2 (h) = NK2 (h) (Homo sapiens, UniProt P21452); assay: CEREP radioligand binding; conditions: radioligand [^125I]-NKA
Description: as §1

NK3 (h) = NK3 (h) (Homo sapiens, UniProt P29371); assay: CEREP radioligand binding; conditions: radioligand [^3H]-SR 142801
Description: as §1

NTS1 (NT1) (h) = NTS1 (NT1) (h) (Homo sapiens, UniProt P30989); assay: CEREP radioligand binding; conditions: radioligand [^125I]-Tyr3-neurotensin
Description: as §1

P2Y = assay: CEREP radioligand binding; conditions: radioligand [^35S]-dATPαS
Description: as §1

PAC1 (PACAP) (h) = PAC1 (PACAP) (h) (Homo sapiens, UniProt P41586); assay: CEREP radioligand binding; conditions: radioligand [^125I]-PACAP1-27
Chain of PAC1 (PACAP) (h) (P41586 21-468): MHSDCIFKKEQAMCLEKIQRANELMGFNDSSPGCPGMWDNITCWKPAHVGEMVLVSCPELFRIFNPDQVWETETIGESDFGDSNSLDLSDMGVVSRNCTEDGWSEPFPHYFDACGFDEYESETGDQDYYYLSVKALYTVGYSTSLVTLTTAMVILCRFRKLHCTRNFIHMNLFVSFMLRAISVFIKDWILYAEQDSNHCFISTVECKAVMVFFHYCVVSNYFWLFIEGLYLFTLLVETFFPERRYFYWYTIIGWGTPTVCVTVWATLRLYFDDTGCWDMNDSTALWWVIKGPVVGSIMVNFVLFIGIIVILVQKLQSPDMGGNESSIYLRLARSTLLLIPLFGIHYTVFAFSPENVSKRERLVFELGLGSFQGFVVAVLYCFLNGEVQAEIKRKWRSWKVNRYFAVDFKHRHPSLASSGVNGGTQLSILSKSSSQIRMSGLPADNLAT
Description: as §1

PCP = assay: CEREP radioligand binding; conditions: radioligand [^3H]-TCP
Description: as §1

V1a (h) = V1a (h) (Homo sapiens, UniProt P37288); assay: CEREP radioligand binding; conditions: radioligand [^3H]-AVP
Description: as §1

Y2 (h) = Y2 (h) (Homo sapiens, UniProt P49146); assay: CEREP radioligand binding; conditions: radioligand [^125I]-peptide YY
Chain of Y2 (h) (P49146 whole entry): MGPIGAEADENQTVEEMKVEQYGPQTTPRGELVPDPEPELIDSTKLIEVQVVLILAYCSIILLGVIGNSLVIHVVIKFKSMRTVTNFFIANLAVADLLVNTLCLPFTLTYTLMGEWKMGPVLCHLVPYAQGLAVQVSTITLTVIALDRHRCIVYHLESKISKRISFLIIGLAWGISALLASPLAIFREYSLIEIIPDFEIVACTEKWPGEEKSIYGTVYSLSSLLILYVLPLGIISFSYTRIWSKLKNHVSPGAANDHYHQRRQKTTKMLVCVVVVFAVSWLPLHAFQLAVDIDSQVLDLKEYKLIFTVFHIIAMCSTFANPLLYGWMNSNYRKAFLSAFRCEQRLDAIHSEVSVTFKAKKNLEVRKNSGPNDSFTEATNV
Description: as §1

sst (non-selective) = assay: CEREP radioligand binding; conditions: radioligand [^125I]-Tyr^11-somatostatin-14
Description: as §1

δ(DOP) (h) = δ(DOP) (h) (Homo sapiens, UniProt P41143); assay: CEREP radioligand binding; conditions: radioligand [^3H]-DADLE
Description: as §1

GAL2 = GAL2 (Homo sapiens, UniProt O43603); type: binding
Chain of GAL2 (O43603 whole entry): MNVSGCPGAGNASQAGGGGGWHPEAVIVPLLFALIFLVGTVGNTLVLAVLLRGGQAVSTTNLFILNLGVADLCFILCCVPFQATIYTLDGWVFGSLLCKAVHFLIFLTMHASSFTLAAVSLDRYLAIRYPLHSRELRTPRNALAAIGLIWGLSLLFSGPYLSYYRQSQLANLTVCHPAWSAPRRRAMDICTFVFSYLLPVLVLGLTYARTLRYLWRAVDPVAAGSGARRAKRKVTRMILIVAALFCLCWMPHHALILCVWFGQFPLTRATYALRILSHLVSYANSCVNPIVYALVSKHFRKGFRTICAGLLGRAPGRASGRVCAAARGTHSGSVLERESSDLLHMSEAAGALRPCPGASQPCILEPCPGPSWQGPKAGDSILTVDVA
Description: as §1

Cn1nnnc1Cn1nnc2c(N3CC[C@H](O)C3)nc(C(C)(C)C)nc21 [RG7774, (S)-1-(5-tert-butyl-3-[(1-methyl-1H-tetrazol-5-yl)methyl]-3H-[1,2,3]triazolo[4,5-d]pyrimidin-7-yl)pyrrolidin-3-ol]
Mean ± SEM % inhibition of control, Mouse DAGL (Mouse DAGL): 17.0 ± 17.7%
pKa (pKa): 2.63
Kp [1]: 0.0955 to 0.213
% inhibition of control SB (n = 2) (AT2 (h)): 3.1%
% inhibition of control SB (n = 2) (Alpha 1 (non-selective)): 6.9%
% inhibition of control SB (n = 2) (Alpha 2 (non-selective)): –20.9%
% inhibition of control SB (n = 2) (Beta 2 (h)): –1.3%
% inhibition of control SB (n = 2) (CB1 (h)): –0.8%
% inhibition of control SB (n = 2) (CCK1 (CCKA) (h)): –7.4%
% inhibition of control SB (n = 2) (CCR1): 5.6%
% inhibition of control SB (n = 2) (CXCR2): –7.7%
% inhibition of control SB (n = 2) (Cl- channel (GABA-gated)): 17.2%
% inhibition of control SB (n = 2) (D2S (h)): 12.0%
% inhibition of control SB (n = 2) (D3 (h)): –0.3%
% inhibition of control SB (n = 2) (ETB (h)): –8.1%
% inhibition of control SB (n = 2) (GABA (non-selective)): –16.1%
% inhibition of control SB (n = 2) (H1 (h)): –8.8%
% inhibition of control SB (n = 2) (IP (PGI2) (h)): –3.8%
% inhibition of control SB (n = 2) (M3 (h)): –6.7%
% inhibition of control SB (n = 2) (M4 (h)): –8.9%
% inhibition of control SB (n = 2) (NK1 (h)): –3.7%
% inhibition of control SB (n = 2) (NK2 (h)): –5.5%
% inhibition of control SB (n = 2) (NK3 (h)): 8.2%
% inhibition of control SB (n = 2) (NTS1 (NT1) (h)): –4.7%
% inhibition of control SB (n = 2) (P2Y): 2.3%
% inhibition of control SB (n = 2) (PAC1 (PACAP) (h)): –1.3%
% inhibition of control SB (n = 2) (PCP): –4.4%
% inhibition of control SB (n = 2) (V1a (h)): 7.5%
% inhibition of control SB (n = 2) (Y2 (h)): –3.6%
% inhibition of control SB (n = 2) (sst (non-selective)): –22.2%
% inhibition of control SB (n = 2) (δ(DOP) (h)): 4.7%
% inhibition of control SB (n = 2) (GAL2): –4.0%
